{"source": "patent US20230292758A1", "about": "“COMPOSITIONS AND METHODS FOR CONTROLLLING FUNGAL DISEASES IN PLANTS” (priority 2020, published 2023)", "key": {"Botrytis cinerea": {"test_system": "Botrytis cinerea", "test": "Botrytis cinerea disease control assay on treated plants inoculated with spore suspension", "assay_type": "in vivo", "details": "Example 1; bell pepper plants", "description": "Subsequently, the plants were inoculated with a spore suspension of Botrytis cinerea. Several days later when disease was evident in the untreated control plants the plants were evaluated for percent disease control. The results shown in Table 1 are the average values of four independent measurements. A relatively high disease pressure affecting 100% of plants in the untreated control group was present. Percent disease control was scored with 0% indicating no difference in disease from the untreated control plants and 100% indicating no observable disease in the plants. […]\nBacillus subtilis QST713 WB and BC were prepared as described in the previous examples. […] Subsequently, the plants were inoculated with a spore suspension of Botrytis cinerea and scored for percent disease control when disease was evident in 100% of the untreated control plants. […]\nBacillus subtilis QST713 WB was prepared as described in the previous examples. […] Four replicate measurements of disease control were evaluated for each treatment, and the average values are presented in the plot shown in FIG. 4.\nEach of the combinations was also evaluated for antifungal activity using the Botrytis cinerea assay described in the previous examples."}, "[1]": {"test": "Relative lipopeptide levels in supernatants by LC-MS", "assay_type": "physicochemical", "details": "Example 4", "description": "Bacillus subtilis QST713 WB and Bacillus subtilis QST713 BC were prepared as described in the previous examples. […] Combinations of Bacillus subtilis QST713 BC with 3% (w/w) ANS or 5% (w/w) ANS were also prepared. […] To determine relative amounts of lipopeptides in the combinations samples were centrifuged to obtain the supernatant layer relatively free of spores. It was then filtered and separated on an analytical HPLC column and detected with a mass spectrometer (i.e., via LC-MS).\nPeaks containing lipopeptides were identified by analysis of mass to charge (m/z) ratios. For example, “Iturin_1043_B” corresponds with an iturin peak in which the predominant m/z ratio detected by the mass spectrometer was 1043 corresponding with the molecular formula of C48H74N12O14. Relative quantification was performed by comparing the peak areas in the samples to those in an extract of a Bacillus subtilis QST713 WB used across different experiments as a reference standard.\nFor purposes of comparison, an aliquot of the Bacillus subtilis QST713 WB that was present in the ANS combinations was also analyzed for relative lipopeptides levels. The Bacillus subtilis QST713 WB (the “Extracted” sample in FIG. 2) and a supernatant of the Bacillus subtilis QST713 WB removed after centrifugation (the “Supernatant” sample in FIG. 2) were analyzed via LC-MS. […]"}}}
{"substance": "sodium diisopropyl naphthalene sulfonate [ANS]", "values": [{"measurement": "antifungal activity / disease control, in words", "setting": "Botrytis cinerea", "value": "no observable disease control"}, {"measurement": "relative amounts of iturins in the supernatant", "setting": "[1]; 3% ANS in WB compared with 3% Adjuvant 1", "value": "about two to three times greater"}, {"measurement": "lipopeptides in the supernatants, in words", "setting": "[1]; increase from 3% to 5% of ANS, WB and BC", "value": "corresponding increase of lipopeptides"}]}
